# Measured values published in ChEMBL document CHEMBL1155955, “Structure-activity relationship studies of the chromosome segregation inhibitor, Incentrom A” (2008).
# Active and inactive are the calls of the source. The calls are words filed in the database; no cut-off is given here.
# Assays:
# [1] = test system: Saccharomyces cerevisiae; experiment: Antiproliferative activity against yeast YPH278 assessed as reduction in cell viability after 24 hrs; format: functional
# [2] = test system: Saccharomyces cerevisiae; experiment: Inhibition of chromosome segregation in yeast YPH278 at 5 uM; format: functional, organism-based
# [3] = test system: Saccharomyces cerevisiae; experiment: Inhibition of chromosome segregation in yeast YPH278 at 15 uM; format: functional, organism-based
Compound,MIC [1] [µM],Activity [2],Activity [3]
O=C(OC(Cc1ccccc1)CN1CCN(CCCCn2c3ccccc3c3ccccc32)CC1)c1ccccc1 (stereo unspecified),> 45,,
c1ccc2c(c1)c1ccccc1n2CCCCN1CCN(CCCC2CCCCC2)CC1,5,,
Nc1ccc(CCCN2CCN(CCCCn3c4ccccc4c4ccccc43)CC2)cc1,16,,
C(=C\c1ccccc1)/CN1CCN(CCCCn2c3c(c4ccccc42)CCCC3)CC1,10,,
[N-]=[N+]=Nc1ccc(/C=C/CN2CCN(CCCCn3c4ccccc4c4ccccc43)CC2)cc1,5,Active,
Nc1ccc(/C=C/CN2CCN(CCCCn3c4ccccc4c4ccccc43)CC2)cc1,15,,
CC(=O)Nc1ccc2c(c1)c1ccccc1n2CCCCN1CCN(C/C=C/c2ccccc2)CC1,> 45,,
OC(CN1CCN(C/C=C/c2ccccc2)CC1)CN1c2ccccc2Oc2ccccc21 (stereo unspecified),7,,
O[C@@H](CN1CCN(C/C=C/c2ccccc2)CC1)Cn1c2ccccc2c2ccccc21,15,,
Oc1cccc(/C=C/CN2CCN(CCCCn3c4ccccc4c4ccccc43)CC2)c1,27,,
O[C@H](CN1CCN(C/C=C/c2ccccc2)CC1)Cn1c2ccccc2c2ccccc21,14,,
CCCCCCCCOc1ccc(CCCN2CCN(CCCCn3c4ccccc4c4ccccc43)CC2)cc1,> 45,,
O=C(OC(CN1CCN(C/C=C/c2ccccc2)CC1)Cn1c2ccccc2c2ccccc21)c1ccccc1 (stereo unspecified),> 45,,
COc1ccc(CCCN2CCN(CCCCn3c4ccccc4c4ccccc43)CC2)cc1,8,,
O=C(CN1CCN(C/C=C/c2ccccc2)CC1)Cn1c2ccccc2c2ccccc21,> 45,,
CCCCCCOc1ccc(CCCN2CCN(CCCCn3c4ccccc4c4ccccc43)CC2)cc1,> 45,,
OC(CN1CCN(C/C=C/c2ccccc2)CC1)Cn1ccc2ccccc21 (stereo unspecified),> 45,,
CN(C)c1ccc(/C=C/CN2CCN(CCCCn3c4ccccc4c4ccccc43)CC2)cc1,42,,
O=[N+]([O-])c1ccc2c(c1)c1ccccc1n2CCCCN1CCN(C/C=C/c2ccccc2)CC1,5,,
OC(CN1CCN(C/C=C/c2ccccc2)CC1)Cn1c2ccccc2c2ccccc21 (stereo unspecified),15,,Active
COc1cccc(/C=C/CN2CCN(CCCCn3c4ccccc4c4ccccc43)CC2)c1,12,,
CC(=O)OC(CN1CCN(C/C=C/c2ccccc2)CC1)Cn1c2ccccc2c2ccccc21 (stereo unspecified),18,,
c1ccc(COc2ccc(CCCN3CCN(CCCCn4c5ccccc5c5ccccc54)CC3)cc2)cc1,> 45,,
O=C(Nc1ccc2c(c1)c1ccccc1n2CCCCN1CCN(C/C=C/c2ccccc2)CC1)c1ccccc1,> 45,,
OC(CN1CCN(C/C=C/c2ccccc2)CC1)Cn1c2c(c3ccccc31)CCCC2 (stereo unspecified),25,,
OC(CN1CCN(Cc2ccccc2)CC1)Cn1c2ccccc2c2ccccc21 (stereo unspecified),> 45,,
OC(CN1CCN(C/C=C/c2ccccc2)CC1)CN(c1ccccc1)c1ccccc1 (stereo unspecified),45,,
[N-]=[N+]=NC(CN1CCN(C/C=C/c2ccccc2)CC1)Cn1c2ccccc2c2ccccc21 (stereo unspecified),> 45,,
Oc1ccc(CCCN2CCN(CCCCn3c4ccccc4c4ccccc43)CC2)cc1,28,,

# Continued, in another order:
MIC [1] [µM],Compound,Activity [2],Activity [3]
44,C(=C\c1ccccc1)/CN1CCN(CCCCCCCCn2c3ccccc3c3ccccc32)CC1,,
> 45,O=c1c2ccccc2n(CCCCN2CCN(C/C=C/c3ccccc3)CC2)c2ccccc12,,
12,C(=C\c1ccccc1)/CN1CCN(CCCn2c3ccccc3c3ccccc32)CC1,,
4,c1ccc(CCCCCN2CCN(CCCCn3c4ccccc4c4ccccc43)CC2)cc1,,
9,c1ccc(CCN2CCN(CCCCn3c4ccccc4c4ccccc43)CC2)cc1,,
5,C(=C\c1ccccc1)/CN1CCN(CCCCn2c3ccccc3c3ccccc32)CC1,Active,
12,OC(Cc1ccccc1)CN1CCN(CCCCn2c3ccccc3c3ccccc32)CC1 (stereo unspecified),,
6,C(=C\c1ccccc1)/CN1CCN(CCCCCn2c3ccccc3c3ccccc32)CC1,,
7,c1ccc(C2OC2CN2CCN(CCCCn3c4ccccc4c4ccccc43)CC2)cc1 (stereo unspecified),,
20,OC(CN1CCN(CCCc2ccccc2)CC1)Cn1c2ccccc2c2ccccc21 (stereo unspecified),,
30,c1ccc2cc(CN3CCN(CCCCn4c5ccccc5c5ccccc54)CC3)ccc2c1,,
5,c1ccc(CCCCN2CCN(CCCCn3c4ccccc4c4ccccc43)CC2)cc1,,
7,C(=C\c1ccccc1)/CN1CCN(CCCCCCn2c3ccccc3c3ccccc32)CC1,,
18,CC(=O)OC(Cc1ccccc1)CN1CCN(CCCCn2c3ccccc3c3ccccc32)CC1 (stereo unspecified),,
